Reference: US7863446B2, “Heterocycles” (Orchid Research Laboratories Limited, priority 2006, dated 2011)

Experiments:
NCI-H460 = experiment: Anti-cancer screen (MTT), NCI-H460; format: cell-based; conditions: Homo sapiens, NCI-H460, 48 hours
Protocol: (§1) Experimental drugs are screened for anti-cancer activity in three cell lines for their GI50, TG1 and LC50 values (using 5 concentrations for each compound). The cell lines are maintained in DMEM containing 10% fetal bovine serum. 96 well microtiter plates are inoculated with cells in […] for 24 hours at 37° C., 5% CO2, 95% air and 100% relative humidity. 5000 HCT116 cells/well, 5000 NCIH460 cells/well, 10000 U251 cells/well and 5000 MDAMB231 cells/well are plated. A separate plate with these cell lines is also inoculated to determine cell viability before the addition of the compounds (T0).
(§2) Addition of Experimental Drugs
(§3) Following 24-hour incubation, experimental drugs are added to the 96 well plates. Each plate contains one of the above cell lines and the following in triplicate: 5 different concentrations (0.01, 0.1, 1, 10 and 100 μM) of 4 different compounds, appropriate dilutions of a cytotoxic standard and control (untreated) wells. Compounds are dissolved in dimethylsulfoxide (DMSO) to make 20 mM stock solutions, on the day of drug addition and frozen at −20° C. Serial dilutions of these 20 mM stock solutions are made in complete growth medium such that 100 μL of these drug solutions in medium, of final concentrations equaling 0.01, 0.1, 1, 10 and 100 μM can be added to the cells in triplicate. Standard drugs whose anti-cancer activity has been well documented and which are regularly used are doxorubicin and SAHA.
(§4) Cells are incubated with compounds for 48 hours followed by the addition of 10 μL 3-(4,5-Dimethyl-2-thiazolyl)-2,5-diphenyl-2H-tetrazolium (MTT) solution per well and a subsequent incubation at 37° C., 5% CO2, 95% air and 100% relative humidity, protected from light. After 4 hours, well contents are aspirated carefully followed by addition of 150 μL DMSO per well. Plates are agitated to ensure solution of the formazan crystals in DMSO and absorbance read at 570 nm.
(§5) Calculation of GI50, TGI and LC50
(§6) Percent growth is calculated for each compound's concentration relative to the control and zero measurement wells (T0; viability right before compound addition).
(§7) If a test well's O.D. value is greater than the T0 measurement for that cell line % Growth=(test−zero)/(control−zero)×100
(§8) If a test well's O.D. value is lower than the T0 measurement for that cell line, then % Growth=(test−zero)/zero×100 Plotting % growth versus experimental drug concentration, GI50 is the concentration required to decrease % growth by 50%; TGI is the concentration required to decrease % growth by 100% and LC50 is the concentration required to decrease % growth by 150%.

HCT-116 = experiment: Anti-cancer screen (MTT), HCT-116; format: cell-based; conditions: Homo sapiens, HCT-116, 48 hours
Protocol: as §1, §2, §3, §4, §5, §6, §7, §8

COX-2 = target: T1, COX-2 (Homo sapiens, UniProt P35354); experiment: Human whole blood assay (PGE-2 inhibition, COX-2); format: cell-based; conditions: LPS stimulated human whole blood, NA = No activity, read-out: % PGE-2 Inhibition in hWBA
T1 construct: Fresh blood was collected in tubes containing sodium heparin by vein puncture from healthy male volunteers; endogenous in cells; host or cells: human whole blood from healthy male volunteers, stimulated with LPS
T1 sequence (P35354 18-604): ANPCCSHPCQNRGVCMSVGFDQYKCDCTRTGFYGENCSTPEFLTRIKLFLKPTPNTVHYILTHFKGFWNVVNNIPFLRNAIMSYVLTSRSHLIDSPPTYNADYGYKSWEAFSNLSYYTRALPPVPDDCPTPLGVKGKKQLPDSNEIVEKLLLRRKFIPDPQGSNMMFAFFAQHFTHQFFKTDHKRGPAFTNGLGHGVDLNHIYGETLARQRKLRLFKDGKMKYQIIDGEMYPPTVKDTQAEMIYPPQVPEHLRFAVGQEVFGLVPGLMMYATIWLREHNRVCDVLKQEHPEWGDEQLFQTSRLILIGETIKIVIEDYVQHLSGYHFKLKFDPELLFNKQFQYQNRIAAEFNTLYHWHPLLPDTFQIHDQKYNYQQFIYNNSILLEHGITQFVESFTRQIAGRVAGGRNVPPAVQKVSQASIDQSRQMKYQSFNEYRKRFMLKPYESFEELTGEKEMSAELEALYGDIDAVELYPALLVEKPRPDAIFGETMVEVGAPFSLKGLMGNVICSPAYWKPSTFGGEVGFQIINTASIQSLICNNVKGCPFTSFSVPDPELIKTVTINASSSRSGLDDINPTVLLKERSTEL
Protocol: In Vitro Evaluation of Cyclooxygenase-2 (Cox-2) Inhibition Activity
The COX-2 inhibition activities of the compounds illustrated in the examples were determined by the following method.
Human whole blood provides a protein and cell rich milieu appropriate for the study of the biochemical efficacy of anti-inflammatory compounds such as selective COX-2 inhibitors. […] This correlates with the observation that COX-2 inhibitors have no effect on prostaglandin E2 (PGE2) production in normal blood. These inhibitors were active only after incubation of human blood with lipopolysaccharide (LPS), which induces COX-2 production in the blood.
Fresh blood was collected in tubes containing sodium heparin by vein puncture from healthy male volunteers. The subjects should have no apparent inflammatory conditions and should have not taken NSAIDs for at least 7 days prior to blood collection. Blood was preincubated with aspirin in vitro (12 μg/ml, at time zero) to inactivate COX-1 for 6 hours. Then test compounds (at various concentrations) or vehicle were added to blood, the blood was stimulated with LPS B:4 (10 μg/ml) and incubated for another 18 hours at 37° C. water bath. After which the blood was centrifuged, plasma was separated and stored at −80° C. (J. Pharmacol. Exp. Ther, 271, 1705, 1994; Proc. Natl. Acad. Sci. USA, 96, 7563, 1999). The plasma was assayed for PGE2 using Cayman ELISA kit as per the procedure outlined by the manufacturer (Cayman Chemicals, Ann Arbor, USA).

TNF-α = experiment: In vitro measurement of TNF-α in human PBMC (LPS stimulated); format: cell-based
Protocol: In Vitro Measurement of Tumor Necrosis Factor Alpha (TNF-α)
This assay determines the effect of test compounds on the production of TNF α in human Peripheral Blood Mononuclear Cells (PBMC). Compounds were tested for their ability to inhibit the activity of TNF α in human PBMC. PBMC were isolated from blood (of healthy volunteers) using BD Vacutainer CPT™ (Cell preparation tube, BD Bio Science) and suspended in RPMI medium (Physiol. Res. 52: 593-598, 2003). The test compounds were pre-incubated with PBMC (0.5 million/incubation well) for 15 minutes at 37° C. and then stimulated with Lipopolysaccharide (Escherichia coli: B4; 1 μg/ml) for 18 hours at 37° C. in 5% CO2. The levels of TNF-α in the cell culture medium were estimated using enzyme-linked immunosorbent assay performed in a 96 well format as per the procedure of the manufacturer (Cayman Chemical, Ann Arbor, USA).

[1] = target: purified recombinant COX-1 (Homo sapiens, UniProt P23219); experiment: COX-1 enzyme based assay; format: biochemical; conditions: NA = No activity, read-out: % Inhibition in rEnzyme Assay COX-1
Chain of purified recombinant COX-1 (P23219 24-599): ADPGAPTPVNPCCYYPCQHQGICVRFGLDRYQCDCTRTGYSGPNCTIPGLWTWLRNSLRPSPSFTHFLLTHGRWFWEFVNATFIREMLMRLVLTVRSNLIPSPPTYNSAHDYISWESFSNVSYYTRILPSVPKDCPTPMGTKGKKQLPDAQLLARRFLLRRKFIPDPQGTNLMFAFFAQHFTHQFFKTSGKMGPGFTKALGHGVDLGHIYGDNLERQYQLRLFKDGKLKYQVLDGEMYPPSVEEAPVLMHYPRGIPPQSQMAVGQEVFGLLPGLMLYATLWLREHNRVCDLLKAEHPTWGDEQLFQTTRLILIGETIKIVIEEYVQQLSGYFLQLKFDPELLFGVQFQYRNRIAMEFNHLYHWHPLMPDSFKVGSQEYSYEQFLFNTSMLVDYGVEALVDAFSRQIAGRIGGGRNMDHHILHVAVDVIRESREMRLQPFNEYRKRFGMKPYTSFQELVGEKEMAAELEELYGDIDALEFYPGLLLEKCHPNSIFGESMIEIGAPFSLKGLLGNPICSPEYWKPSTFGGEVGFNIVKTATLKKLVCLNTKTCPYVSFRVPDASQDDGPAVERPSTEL
Protocol: (§9) COX-1 and COX-2 Enzyme Based Assay
(§10) COX-1 and COX-2 enzyme based assays were carried out to check the inhibitory potential of the test compounds on the production of prostaglandin by purified recombinant COX-1/COX-2 enzyme (Proc. Nat. Acad. Sci. USA, 88, 2692-2696, 1991; J. Clin. Immunoassay 15, 116-120, 1992) In this assay, the potential of the test compound to inhibit the production of prostaglandin either by COX-1 or COX-2 from arachidonic acid (substrate) was measured. This was an enzyme based in-vitro assay to evaluate selective COX inhibition with good reproducibility.
(§11) Arachidonic acid was converted to PGH2 (Intermediate product) by COX1/COX-2 in the presence or absence of the test compound. The reaction was carried out at 37° C. and after 2 minutes it was stopped by adding 1M HCl. Intermediate product PGH2 was converted to a stable prostanoid product PGF2αby SnCl2 reduction. The amount of PGF2α, produced in the reaction was inversely proportional to the COX inhibitory potential of the test compound. The prostanoid product was quantified via enzyme immunoassay (EIA) using a broadly specific antibody that binds to all the major forms of prostaglandin, using Cayman ELISA kit as per the procedure outlined by the manufacturer (Cayman Chemicals, Ann Arbor, USA).

[2] = target: T2, purified recombinant COX-2 (Homo sapiens, UniProt P35354); experiment: COX-2 enzyme based assay; format: biochemical; conditions: 10 μM; NA = No activity; read-out: % Inhibition in rEnzyme Assay COX-2
T2 sequence (P35354 18-604): T1 sequence (P35354 18-604)
Protocol: as §9, §10, §11

Structure (SMILES)	GI50 (NCI-H460)	GI50 (HCT-116)	melting point	further results
O=C(c1ccc([N+](=O)[O-])o1)N1CCN(c2nc(C(F)(F)F)nc(-c3ccncc3)c2-c2ccc(F)cc2)CC1 [Example 44, 5-[4-Fluorophenyl]-4-[4-(5-nitro-2-furoyl)piperazin-1-yl]-6-pyridin-4-yl-2-(trifluoromethyl)pyrimidine]	4.5 µM	26 µM	–	–
CC(=O)NS(=O)(=O)c1ccc(-c2c(Cl)nc(C(F)(F)F)nc2-c2ccc(S(C)(=O)=O)cc2)cc1 [Example 17, N-[(4-{4-Chloro-6-[4-(methylsulfonyl)phenyl]-2-(trifluoromethyl)pyrimidin-5-yl}phenyl)sulfonyl]acetamide]	–	–	230 to 235 °C	–
Cc1ccc(S(=O)(=O)Oc2nc(C(F)(F)F)nc(-c3ccc(S(C)(=O)=O)cc3)c2-c2ccccc2)cc1 [Example 22, 6-[4-(Methylsulfonyl)phenyl]-5-phenyl-2-(trifluoromethyl)pyrimidin-4-yl-4-methylbenzenesulfonate]	–	–	–	inhibition at 0.25 µM (COX-2; 0.25 μM): 15.6%; inhibition at 1 µM (COX-2; 1 μM): 20.4%; inhibition at 10 µM (COX-2; 10 μM): 36.4%
NS(=O)(=O)c1cccc(-c2c(-c3ccc(F)cc3)nc(C(F)(F)F)nc2N2CCN(c3cccc(C(F)(F)F)c3)CC2)c1 [Example 73, 5-(3-Aminosulfonylphenyl)-4-(4-fluorophenyl)-2-(trifluoromethyl)-6-{4-[3-(trifluoromethyl)phenyl]piperazin-1-yl}pyrimidine]	9 µM	9.2 µM	–	–
CS(=O)(=O)c1ccc(-c2nc(C(F)(F)F)nc(Cl)c2-c2ccc(S(=O)(=O)Cl)cc2)cc1 [Example 3, 4-{4-Chloro-6-[4-(methylsulfonyl)phenyl]-2-(trifluoromethyl)pyrimidin-5-yl}benzenesulfonyl chloride]	–	–	207 to 210 °C	–
O=C(NNc1nc(C(F)(F)F)nc(-c2ccncc2)c1-c1ccc(F)cc1)C(F)(F)F [Example 14, 2,2,2-Trifluoro-N′-[5-(4-fluorophenyl)-6-pyridin-4-yl-2-(trifluoromethyl)pyrimidin-4-yl]acetohydrazide]	–	–	240 to 242 °C	inhibition at 1 µM (TNF-α; 1 μM, NA = No activity, read-out: TNF-α Inhibition (%) at Conc. (1 μM)): 25.5%; inhibition at 10 µM (TNF-α; 10 μM, read-out: TNF-α Inhibition (%) at Conc. (10 μM)): 67.5%
CSc1nn(-c2nc(C(F)(F)F)nc(-c3ccncc3)c2-c2ccc(F)cc2)c(N)c1C(=O)Nc1ccc(C)c(C)c1 [Example 143, 5-Amino-N-(4,5-dimethylphenyl)-1-[5-(4-fluorophenyl)-6-pyridin-4-yl-2-(trifluoromethyl)pyrimidin-4-yl]-3-(methylthio)-1H-pyrazole-4-carboxamide]	0.1 µM	20 µM	–	–
NS(=O)(=O)c1ccc(-c2nc(C(F)(F)F)nc(N3CCN(C(=O)c4ccc([N+](=O)[O-])o4)CC3)c2-c2ccc(F)cc2)cc1 [Example 40, 4-{5-[4-Fluorophenyl]-4-[4-(5-nitro-2-furoyl)piperazin-1-yl]-2-(trifluoromethyl)pyrimidin-6-yl}benzenesulfonamide]	3.8 µM	3.5 µM	–	–
FC(F)(F)c1nc(-c2ccccc2)c(-c2ccccc2)c(N2CCN(c3ccccn3)CC2)n1 [Example 48, 4,5-Diphenyl-6-(4-pyridin-2-yl-piperazin-1-yl)-2-(trifluoromethyl)pyrimidine]	–	–	165 to 167 °C	–
NS(=O)(=O)c1cccc(-c2c(-c3ccccc3)nc(C(F)(F)F)nc2N2CCNCC2)c1 [Example 51, 3-[4-Phenyl-6-piperazin-1-yl-2-(trifluoromethyl)pyrimidin-5-yl]benzenesulfonamide]	4 µM	30 µM	–	inhibition at 1 µM ([1]; 1 μM): 8.27%; inhibition at 10 µM ([1]; 10 μM): 7.1%; inhibition at 10 µM [2]: 12.3%
NS(=O)(=O)c1ccc(-c2c(-c3ccc(F)cc3)nc(C(F)(F)F)nc2N2CCN(C(=O)c3ccc([N+](=O)[O-])o3)CC2)cc1 [Example 41, 4-{6-[4-Fluorophenyl]-4-[4-(5-nitro-2-furoyl)piperazin-1-yl]-2-(trifluoromethyl)pyrimidin-5-yl}benzenesulfonamide]	4 µM	7 µM	–	–
